Counter-ions that a name gives are not always drawn. Like-named read-outs stand apart in the source and are kept apart here.

This is an account of results in US8058243B2, “Method for treating a brain cancer with ifenprodil” (HSC Research and Development Limited Partnership, priority 2006, dated 2011).

The assay relates to murine neural precursor cells (neurosphere cultures). Kind of assay: HTS of LOPAC library against secondary neurosphere cultures, MTT proliferation assay at 3 μM, day 7 (z score, P value). The format is cell-based, mouse.
Where [1] appears, read: primary LOPAC screen, 3 μM, MTT, neurosphere proliferation.
[2] abbreviates: yes/no: significantly inhibited neurosphere proliferation in the primary screen.
The mark [3] stands for this setting: LOPAC primary screen, neurosphere MTT proliferation, 3 μM, day 7.
Setting [4] is: yes/no: significantly inhibited neurosphere proliferation in primary screen.
[5] abbreviates: LOPAC library screen at 3 μM, secondary neurosphere cultures, MTT.
The mark [6] stands for this setting: LOPAC screen, neurosphere MTT proliferation, 3 μM, day 7.
Setting [7] is: yes/no: significantly inhibited neurosphere proliferation (P<0.01) in primary screen.
Setting [8] is: LOPAC library screen, 3 μM, MTT, neurosphere cultures.
Setting [9] is: yes/no: significantly inhibited neurosphere proliferation (P<0.01) in the primary screen.
Where [10] appears, read: LOPAC library screen, 3 μM, MTT, secondary neurosphere cultures, day 7.
The mark [11] stands for this setting: yes = significantly inhibited neurosphere proliferation (P<0.01) in the primary screen.

As to `Cn1ccc2cc3c(cc21)CCN3C(=O)Nc1cccnc1` [SB 206553 hydrochloride], the “Z Score” value is −1.365. The same compound gave a Z score under setting [1] of −1.365. Moreover, the Activity result under setting [2] is listed as “no”.

Regarding “Phenylbenzene-omega-phosphono-alpha-amino acid”, the “Z Score” value was −0.01423. The Z score under setting [3] is listed as −0.014. Besides, under setting [4], the Activity result is listed as “no”.

As to `CC(C[N+](C)(C)C)OC(N)=O` (stereo not drawn) [Bethanechol chloride], the “Z Score” value under setting [5] was −0.6493. Moreover, the Z score under setting [6] is recorded as −0.649. Besides, under setting [7], the Activity entry was “no”.

Turning to `CC(=O)SCC[N+](C)(C)C.[Cl-]` [Acetyithiocholine chloride], the “Z Score” value is given as 0.004223.

Take `CCCC(C)(COC(N)=O)COC(=O)NC(C)C` (stereo not drawn) [Carisoprodol]: the “Z Score” value is on record as −1.795. Also, the Z score under setting [6] is on record as −1.795. For the same compound, the Activity entry under setting [7] was “no”.

In the case of `CN1C(=O)CCS(=O)(=O)C1c1ccc(Cl)cc1` (stereo not drawn) [Chlormezanone], the “Z Score” value is listed as −0.9465. Moreover, the Z score under setting [6] is recorded as −0.947. Besides, the Activity entry under setting [7] is “no”.

Take `CCCN1CCO[C@@H]2c3cc(O)ccc3OC[C@H]21.Cl` [S(+)-PD 128,907 hydrochloride]: the “Z Score” value is −1.174. Besides, the Z score under setting [3] is listed as −1.174. Further, under setting [4], the Activity entry is listed as “no”.

`CC(=O)Oc1ccccc1C(=O)O` [Acetylsalicylic acid]: the “Z Score” value under setting [5] was −0.4812.

On to `CN(C)CCCN1c2ccccc2CCc2ccc(Cl)cc21` [Clomipramine hydrochloride], for which the Activity result is reported as “no”. Besides, the “Z Score” value under setting [5] is recorded as −0.8439. The Z score under setting [3] was −0.844.

For the compound `OC(CCN1CCCCC1)(c1ccccc1)C1CCCCC1` (stereo not drawn) [Trihexyphenidyl hydrochloride], under setting [8], the “Z Score” value amounted to 1.215.

For `N[C@@H](Cc1c[nH]c2ccc(O)cc12)C(=O)O` [5-Hydroxy-L-tryptophan], the “Z Score” value under setting [8] was 0.03011. The Z score under setting [3] is listed as 0.030. For the same compound, the Activity entry under setting [7] is recorded as “no”.

Consider `CC(N)=NCc1cccc(CN)c1.Cl.Cl` [1400W dihydrochloride], for which the “Z Score” value is given as −0.2749. This compound also gave a Z score under setting [1] of −0.275. The Activity result under setting [2] was “no”.

Turning to `CNC[C@H](O)c1ccc(O)c(O)c1.O=C(O)C(O)C(O)C(=O)O` [(−)-Epinephrine bitartrate], the “Z Score” value under setting [5] was −0.5304. The compound also gave a Z score under setting [3] of −0.530. Besides, under setting [7], the Activity entry was “no”.

As for `COc1ccccc1CNCCCCCCNCCCCCCCCNCCCCCCNCc1ccccc1OC` [Methoctramine (31), Methoctramine, reference compound], for the setting “168 h, 3 µM”, the “Z Score” value is listed as −7.012 and the Z score is −7.012. Also, the Activity entry under setting [9] is reported as “yes”.

For the compound `Cl.N=C(N)c1ccccc1` [Benzamidine hydrochloride], the Activity entry is “no”, the “Z Score” value is recorded as 1.509 and the Z score came out at 1.509.

Take `Nc1nc2c(nc(Br)n2[C@@H]2O[C@@H]3COP(=O)([O-])O[C@H]3[C@H]2O)c(=O)[nH]1.[Na+]` [8-Bromo-cGMP sodium]: the “Z Score” value is −1.005. This compound also had a Z score under setting [1] of −1.005. Also, under setting [2], the Activity entry was “no”.

Consider `CC(=O)O.O=C(NCC1CCCCN1)c1cc(OCC(F)(F)F)ccc1OCC(F)(F)F` (stereo not drawn) [Flecainide acelate], for which the Activity result is recorded as “no”. This compound also displayed a Z score under setting [3] of −1.498.

Consider `CC[C@@]1(O)C(=O)OCc2c1cc1n(c2=O)Cc2cc3ccccc3nc2-1` [(S)-(+)-Camptothecin], for which the “Z Score” value under setting [10] is given as −9.67. In addition, under setting [3], the Z score is listed as −9.670. Further, the Activity entry under setting [11] was “yes”.

With `CN1CCN(C2Cc3ccccc3Sc3ccc(Cl)cc32)CC1.O=C(O)/C=C\C(=O)O` (racemic) [(±)-Octoclothepin maleate], the Z score under setting [3] was determined as 1.473. In addition, the Activity entry under setting [9] was “no”.

Consider `COc1cc2nc(N3CCN(C(=O)OCc4ccccc4)[C@H](C(=O)NC(C)(C)C)C3)nc(N)c2cc1OC` [L-765,314], for which the “Z Score” value was −0.8308. Under setting [3], this compound had a Z score of −0.831. For the same compound, under setting [9], the Activity result is “no”.

In the case of (S)-Propranolol hydrochloride, the “Z Score” value under setting [5] was −0.5346. Under setting [3], this compound yielded a Z score of −0.535. Moreover, under setting [4], the Activity entry is “no”.

On to Hydroxytacrine maleate, for which the “Z Score” value is −0.2043. The same compound displayed a Z score under setting [3] of −0.204. Further, the Activity result under setting [7] was “no”.

With `NC(=O)c1ncn([C@@H]2O[C@H](CO)[C@@H](O)[C@H]2O)c1O` [Mizoribine], where the note is “LOPAC library screen at 3 μM, MTT, secondary neurosphere cultures, screened in singlets”, the “Z Score” value came to 1.642.

As to `CNCC(O)c1ccc(O)cc1` (racemic) [(±)-Synephrine], the Z score under setting [3] is −0.149. Further, the Activity entry under setting [4] is on record as “no”.

With Oxotremorine sesquifumarate salt, the “Z Score” value was determined as 0.8552. For the same compound, the Z score under setting [3] worked out at 0.855. For the same compound, the Activity result under setting [4] is recorded as “no”.

As to `CC(=O)N[C@H](C(=O)O)C(C)(C)SN=O` (racemic) [S-Nitroso-N-acetylpenicillamine], the “Z Score” value under setting [10] was −1.645. Further, the Z score under setting [3] is reported as −1.645. Moreover, the Activity entry under setting [11] was “no”.

As to `Cl.c1ccc(CN2CCC3(CCCc4ccccc43)CC2)cc1` [L-687,384 hydrochloride], the “Z Score” value is recorded as −9.156. Moreover, under setting [3], the Z score is on record as −9.156. Also, under setting [11], the Activity entry was “yes”.

As to `Clc1ccc2c(c1)C(N1CCNCC1)=Nc1ccccc1O2` [Amoxapine], under “168 h, 3 µM”, the “Z Score” value is recorded as −1.041 and the Z score is listed as −1.041. Also, the Activity result under setting [2] was “no”.

For `N=C(N)c1ccc(OCCCCCOc2ccc(C(=N)N)cc2)cc1` [Pentamidine (32), Pentamidine, reference compound], the Activity result is listed as “yes”. Also, under setting [10], the “Z Score” value is on record as −11.27. Further, under setting [3], the Z score is given as −11.274.

`CC(C)(C)NCC(O)COc1cccc2[nH]c(=O)[nH]c12.Cl` (stereo not drawn) [(B1)-CGP-12177A hydrochloride]: the “Z Score” value is given as −1.611.

On to `C[N+](C)(C)CCCCCC[N+](C)(C)C` [Hexamethonium bromide], for which the “Z Score” value is reported as −0.8199. The same compound registered a Z score under setting [3] of −0.820. Besides, the Activity result under setting [9] is “no”.

With `CNC(=O)OCC[N+](C)(C)C.[Cl-]` [Methylcarbamylcholine chloride], the “Z Score” value is on record as 1.913. Besides, the Z score under setting [3] amounted to 1.913. Moreover, the Activity result under setting [11] is reported as “no”.

For `N=C(N)NC(=N)Nc1ccccc1` [1-Phenylbiguanide], where the note is “168 h, 3 µM”, the “Z Score” value is −2.689 and the Z score is reported as −2.689. Further, under setting [9], the Activity result is recorded as “yes”.

In the case of `Nc1nc(Nc2ccccc2)nc2c1ncn2[C@@H]1O[C@H](CO)[C@@H](O)[C@H]1O` [2-Phenylaminoadenosine], for the setting “168 h, 3 µM”, the “Z Score” value is 0.5728 and the Z score came out at 0.573. Moreover, the Activity result under setting [9] is given as “no”.

On to `C=CCN1CC[C@]23c4c5ccc(O)c4O[C@H]2/C(=N/N=C2\CC[C@@]4(O)[C@H]6Cc7ccc(O)c8c7[C@@]4(CCN6CC=C)[C@H]2O8)CC[C@@]3(O)[C@H]1C5` [Naloxonazine dihydrochloride], for which the “Z Score” value is −0.6061. The Z score under setting [3] is given as −0.606. Also, the Activity entry under setting [9] is on record as “no”.

For `NC(=NCc1ccccc1)NC(=O)c1nc(Cl)c(N)nc1N` [Benzamil hydrochloride], the “Z Score” value under setting [5] is listed as −1.054. The compound further came in with a Z score under setting [6] of −1.054. Under setting [7], the Activity result is “no”.

Turning to (+)-Nicotine (+)-di-p-toluoyl tartrate, the Activity entry was “no”, the “Z Score” value is on record as −2.233 and the Z score is listed as −2.233.

On to `Cl.Oc1cc2c(cc1O)C(c1ccccc1)CNCC2` (racemic) [(±)-SKF-38393 hydrochloride], for which the Activity result is listed as “no”. For the same compound, under setting [6], the Z score is 1.280.

As for `O=c1ccc2ccc(O)c(O)c2o1` [Daphnetin], the Activity entry is “no”. In addition, under “168 h, 3 µM”, the “Z Score” value is −0.9798 and the Z score is listed as −0.980.

In turn, `Cl.c1ccc([C@H]2CN3CCSC3=N2)cc1` [(−)-Teramisole hydrochloride] displayed a Z score under setting [3] of −1.866. Moreover, the Activity entry under setting [7] was “no”.

On to `CN(C(=O)Cc1ccc(Cl)c(Cl)c1)C(CN1CCCC1)c1cccc(OCC(=O)O)c1.Cl` (stereo not drawn) [ICI 204,448 hydrochloride], for which the “Z Score” value was −0.3636. Besides, under setting [3], the Z score was −0.364. Moreover, the Activity entry under setting [7] is reported as “no”.

Take `CN(C)CCOC(=O)COc1ccc(Cl)cc1` [Centrophenoxine hydrochloride]: the “Z Score” value is recorded as −0.3302. The compound further returned a Z score under setting [6] of −0.330. Also, under setting [7], the Activity entry is given as “no”.

`CC(N)Cc1c[nH]c2ccc(OCc3cccs3)cc12` (stereo not drawn) [BW 723C86]: the “Z Score” value amounted to 0.7247. This compound registered a Z score under setting [6] of 0.725. For the same compound, the Activity result under setting [7] is listed as “no”.

With `CC(=O)NBr` [N-Bromoacetamide], the “Z Score” value under setting [10] was −1.362. The compound also showed a Z score under setting [6] of −1.362. For the same compound, the Activity result under setting [7] is “no”.

`O=C(O)c1cc([N+](=O)[O-])ccc1NCCCc1ccccc1` [5-Nitro-2-(3-phenylpropylamino)benzoic acid]: for the setting “168 h, 3 µM”, the “Z Score” value was −0.7343 and the Z score is −0.734. Further, the Activity result under setting [11] is listed as “no”.

Regarding `COC(=O)[C@H](NC(=O)c1cc(-c2ccccc2)nc2ccccc12)c1ccccc1` [SB 218795], the “Z Score” value is 1.359. In addition, the Z score under setting [3] was 1.359. Moreover, the Activity entry under setting [7] is “no”.
